{"source": "patent US20210236523A1", "about": "“P[…] FOR HEADACHE DISORDERS” (priority 2020, published 2021)", "key": {"[1]": {"test_system": "patients with migraine headache", "experiment": "Placebo-controlled cross-over study of a single low oral dose of psilocybin in migraine headache: headache diary burden", "assay_type": "in vivo, human", "description": "The purpose of this exploratory study was to investigate the effects of a single low dose of psilocybin in patients with migraine headache in a controlled experiment. Basic information was gathered to assist in the development of future studies considering the effects and mechanism of action of 5-HT2A receptor compounds in migraine and other headache disorders.\n(§1) This study was registered on clinicaltrials.gov (NCT03341689) with approvals from the Human Studies Subcommittee of Veterans Affairs Connecticut Healthcare System (VACHS) and the Human Investigations Committee of Yale University School of Medicine. The study was conducted under an approved Investigational New Drug application (#124,874) with the US Food & Drug Administration, under a Schedule 1 license (author DCD). Psilocybin was provided by author NC from the University of Wisconsin. Weight-based capsules of psilocybin 0.143 mg/kg and matching placebo [microcrystalline cellulose; obtained from Fagron (St. Paul, Minn.)] were compounded into identical blue gel capsules by the VACHS Investigational Research Pharmacy for each subject.\nAdults (age 21 to 65 years, inclusive) free from serious medical or psychiatric disease with migraine headache as defined by the International Classification of Headache Disorders III-beta and with a frequency of migraine attacks of 2 per week or more were eligible to participate in this study. Among the excluded medical conditions were uncontrolled hypertension, coronary artery disease, cardiac arrhythmia, cerebrovascular disease, and serious central or peripheral nervous system or spinal disease (e.g., multiple sclerosis, amyotrophic lateral sclerosis). Psychotic or manic disorders in the subject or a first degree relative was also excluded, as were substance abuse within the past 3 months and any prior serious adverse event with psilocybin, LSD, or related compounds (i.e., mescaline). Prior exposure to psilocybin or related compounds through recreational or medicinal use or through participation in other research studies was not excluded, although any use in the past 3 months was prohibited. Alcohol use within one week of the first experimental test day was prohibited. Caffeine and nicotine were not restricted. Subjects were required to be free from serotonergic antidepressants (selective serotonin reuptake inhibitors, serotonin and norepinephrine reuptake inhibitors, monoamine oxidase inhibitors, tricyclics) for at least 6 weeks, serotonergic antiemetics (i.e., ondansetron) for at least 2 weeks, and vasoconstrictive medications (i.e., pseudoephedrine) for at least 5 half-lives of said medication. Triptans were permitted, but no more than twice weekly and not within 5 half-lives of said triptan before each test day and not within 5 half-lives of psilocybin (15 hours) after each test day.\nSubjects were instructed to maintain a headache diary starting two weeks before the first experimental session until two weeks after the second experimental session. Subjects documented every headache attack, migraine (with associated migrainous symptoms) or otherwise (without associated migrainous symptoms; not counted as a migraine attack). Associated symptoms—photophobia (light sensitivity), phonophobia (sound sensitivity), nausea/vomiting—as well as attack-related functional impairment were documented using a 0-3 visual analog scale (VAS): 0=none, 1=mild, 2-moderate, 3=severe. The abortive medications taken and their effects were also recorded in the diary. Only the 14 days prior to the first experimental session (baseline) and the 14 days after each experimental session (inclusive) were counted in the final analysis.\nSubjects completed two experimental sessions, separated by at least 14 days, which were conducted in the Neurobiological Studies Unit (NSU) at VACHS. Subjects reported to the NSU at 08:00; urine drug, urine pregnancy (when applicable), and alcohol breathalyzer tests were required to be negative in order to proceed. […]"}, "[2]": {"test_system": "patients with cluster headache", "experiment": "Randomized placebo-controlled study of a 3-dose psilocybin pulse regimen in cluster headache: headache diary", "assay_type": "in vivo, human", "conditions": "for effect size for change in weekly cluster attacks: psilocybin vs placebo; for change in the number of weekly cluster attacks / number of weekly cluster attacks: 3-dose pulse 0.143 mg/kg", "description": "In this exploratory study, a patient-informed regimen (a low dose of psilocybin (between 1-2 grams dried P. cubensis taken three times, approximately 5 days apart each)) was studied in patients with cluster headache in a controlled, laboratory setting. The information gained from this study serves to (1) verify longstanding anecdotal reports and (2) design larger, more definitive studies examining the safety and efficacy of psilocybin in cluster headache.\nas §1, with “(NCT02981173)” for “(NCT03341689)”, “(microcrystalline” for “[microcrystalline”, “Minn.))” for “Minn.)]”\nAdults (age 21 to 65 years, inclusive) with cluster headache as defined by the International Classification of Headache Disorders III-beta 8 were eligible to participate in this study. Both chronic and episodic cluster headache subtypes were eligible, however certain conditions were required to ensure proper interpretation of the study intervention. For both chronic and episodic subjects, an attack frequency of approximately 1 attack per day or more was required. For episodic subjects, the typical cluster period was required to last approximately 2 months or more and study participation could only take place when at least 6 weeks of the period was anticipated to remain. Excluded medical conditions included, but were not limited to, uncontrolled hypertension, coronary artery disease, cardiac arrhythmia, cerebrovascular disease, and serious central or peripheral nervous system or spinal disease. Excluded psychiatric conditions included, but were not limited to, psychotic or manic disorders in the subject or a first degree relative and substance abuse within the past 3 months. Any prior serious adverse event with psilocybin, LSD, or related compounds (i.e., mescaline) was also exclusionary. Prior exposure to psilocybin or related compounds through recreational or medicinal use or through participation in other research studies was not excluded, although any use in the past 3 months was prohibited. Alcohol use within one week of the first experimental test day was prohibited. Caffeine and nicotine were not restricted. Subjects were required to be off serotonergic antidepressants (selective serotonin reuptake inhibitors, serotonin and norepinephrine reuptake inhibitors, monoamine oxidase inhibitors, tricyclics) for at least 6 weeks and serotonergic antiemetics (i.e., ondansetron) for at least 2 weeks from the first test day. Vasoconstrictive medications (i.e., sumatriptan, pseudoephedrine) could be used during the study period, but not within 5 half-lives of said medication and not within 5 half-lives of psilocybin (15 hours) after each test day. Triptans were also not allowed more than twice weekly.\nSubjects were instructed to maintain a headache diary starting 2 weeks before until 8 weeks after the first experimental session. Subjects documented every cluster attack, including date, onset, offset, pain intensity (0-10 visual analog scale (VAS): 0=none, 1=minimal, 5=moderate, 9=severe, 10=worst imaginable). The abortive treatments taken and their effects were also recorded in the diary. Only the 14 days prior to the first experimental session (baseline) and the 56 days after the first experimental session (inclusive) were counted in the final analysis. […]"}, "[3]": {"conditions": "of 10 subjects, 14 days after single oral dose 0.143 mg/kg"}, "[4]": {"conditions": "single oral dose 0.143 mg/kg, two weeks after dosing"}}}
{"smiles": "CN(C)CCc1c[nH]c2cccc(OP(=O)(O)O)c12", "note": "[psilocybin, 3-(2-dimethylaminoethyl)-1H-indol-4-yl] dihydrogen phosphate]", "values": [{"measurement": "change from baseline in attack-related functional impairment", "setting": "[1]; 0-3 VAS, single oral dose 0.143 mg/kg, mean (SEM), P=0.0235 vs placebo", "result": "−0.96 (0.26)"}, {"measurement": "subjects with no migraine attacks after administration", "setting": "[1]; [3]", "result": 2, "unit": "subjects"}, {"measurement": "subjects with only one migraine attack after administration", "setting": "[1]; [3]", "result": 2, "unit": "subjects"}, {"measurement": "change in weekly migraine days (WMD) from baseline", "setting": "[1]; single oral dose 0.143 mg/kg, 14 days after dosing, mean (SEM), 10 subjects, P=0.0027 vs placebo", "result": "−1.65 (0.39) days/week"}, {"measurement": "time to the second migraine attack after drug administration", "setting": "[1]; single oral dose 0.143 mg/kg, mean (SEM), 15 days used when no attack, P=0.0119 vs placebo", "result": "10.30 (1.61) days"}, {"measurement": "time to the first migraine attack after drug administration", "setting": "[1]; single oral dose 0.143 mg/kg, mean (SEM), 15 days used when no attack, P=0.0554 vs placebo", "result": "6.30 (1.88) days"}, {"measurement": "change from baseline in weekly migraine attacks (WMA)", "setting": "[1]; single oral dose 0.143 mg/kg, mean (SEM), P=0.0039 vs placebo", "result": "−1.40 (0.36) attacks/week"}, {"measurement": "change from baseline in pain severity", "setting": "[1]; single oral dose 0.143 mg/kg, mean (SEM), P=0.0109 vs placebo", "result": "−0.70 (0.16)"}, {"measurement": "change from baseline in weekly migraine abortive use", "setting": "[1]; single oral dose 0.143 mg/kg, mean (SEM), P=0.0140 vs placebo", "result": "−0.65 (0.21) abortives/week"}, {"measurement": "percentage of subjects who had 25% reduction in WMD", "setting": "[1]; [4]", "result": 80, "unit": "%"}, {"measurement": "percentage of subjects who had 50% reduction in WMD", "setting": "[1]; [4]", "result": 50, "unit": "%"}, {"measurement": "percentage of subjects who had 75% reduction in WMD", "setting": "[1]; [4]", "result": 30, "unit": "%"}, {"measurement": "effect size for change in weekly cluster attacks", "setting": "[2]; chronic cluster headache subjects, 8 weeks", "result": "−1.20"}, {"measurement": "change in the number of weekly cluster attacks", "setting": "[2]; chronic cluster headache subjects, across 8 weeks, P=0.080 vs placebo", "result": "−6.08 (2.29)"}, {"measurement": "number of weekly cluster attacks", "setting": "[2]; chronic cluster headache subjects, across 8 weeks, group baseline 8.67 (2.42)", "result": "4.58 (0.77)"}, {"measurement": "change in the number of weekly cluster attacks", "setting": "[2]; over the first 3 weeks, episodic and chronic combined, P=0.017 vs placebo", "result": "−6.03 (2.23)"}, {"measurement": "number of weekly cluster attacks", "setting": "[2]; over the first 3 weeks, episodic and chronic patients combined, group baseline 9.30 (1.49)", "result": "3.50 (1.12)"}, {"measurement": "effect size for change in weekly cluster attacks", "setting": "[2]; three weeks", "result": "−1.89"}]}
